This note sets out measurements from patent publication US5496830A (Johns Hopkins University, priority 1994, dated 1996).

Like-named read-outs stand apart in the source and are kept apart here.

Test [1] relates to T. brucei brucei (MiTat 1.2, strain 427, variant 221). As to the kind of experiment: In vitro inhibition of blood stream form trypanosomes, acid phosphatase detection of survivors. In kind it is cell-based. The note with it: Trypanosoma brucei, read-out: Trypanosome EC50. On the procedure:
Camptothecin compounds were tested against blood stream form trypanosomes in vitro. T. brucei brucei (MiTat 1.2, strain 427, variant 221) were cultured at 37° C. according to the methods of Carruthers and Cross (Carruthers, V. B., and Cross, G. A. M. (1992) Proc. Natl. Acad. Sci. USA., 89:8818-8821) with the substitution of phenol red-free Iscoves Modified Dulbecco's Medium (Mediatech, Inc.) in the HMI-9 culture medium. […] Exponentially growing trypanosomes were diluted to 10^5 cells/ml with prewarmed medium.
The plate was incubated at 37° C. for 24 h in a humidified incubator maintained with 5% CO2.
Surviving trypanosomes were detected by the acid phosphatase method (Martin, A. and Clynes, M. (1991) In Vitro Cell. Dev. Biol. 27A:183-184). p-Nitrophenol phosphate (20 μl of 20 mg/ml; solubilized in 1 M sodium acetate, pH 5.5; 1% Triton X-100) was added to each 200 μl sample and mixed. The plate was then incubated for 3-4 h at 37° C. The production of p-nitrophenol was measured at 405 nm on a microplate reader (UVmax kinetic microplate reader, Molecular Devices). Quadruplicate values were averaged and blanks (complete reaction mixture without trypanosomes) were subtracted for each drug concentration.

In test [2] the target is T1, topoisomerase I (Homo sapiens, UniProt P11387).
T1 sequence (P11387 1-765): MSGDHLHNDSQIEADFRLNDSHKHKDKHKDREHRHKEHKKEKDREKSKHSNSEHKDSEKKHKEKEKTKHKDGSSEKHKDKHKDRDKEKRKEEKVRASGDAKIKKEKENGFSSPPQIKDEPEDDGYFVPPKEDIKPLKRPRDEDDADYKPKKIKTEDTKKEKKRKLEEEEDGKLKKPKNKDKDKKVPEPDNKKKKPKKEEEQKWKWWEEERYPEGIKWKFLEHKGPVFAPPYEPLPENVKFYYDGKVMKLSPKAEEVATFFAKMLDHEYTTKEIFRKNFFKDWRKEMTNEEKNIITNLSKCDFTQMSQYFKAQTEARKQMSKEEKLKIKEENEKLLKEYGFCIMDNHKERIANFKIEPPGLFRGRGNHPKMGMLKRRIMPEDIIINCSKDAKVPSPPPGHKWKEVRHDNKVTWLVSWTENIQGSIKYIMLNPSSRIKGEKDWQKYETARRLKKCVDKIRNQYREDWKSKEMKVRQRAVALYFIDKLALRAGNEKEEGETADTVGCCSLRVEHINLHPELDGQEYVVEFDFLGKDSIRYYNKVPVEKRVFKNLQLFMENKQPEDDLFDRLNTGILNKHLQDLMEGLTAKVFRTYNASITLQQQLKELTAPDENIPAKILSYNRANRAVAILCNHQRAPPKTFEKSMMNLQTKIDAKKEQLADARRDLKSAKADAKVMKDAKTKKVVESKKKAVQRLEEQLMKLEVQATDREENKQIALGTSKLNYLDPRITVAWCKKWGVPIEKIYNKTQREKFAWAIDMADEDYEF
The test is described as follows: Topoisomerase I inhibition relative to 20(S)-camptothecin (separate independent experiments). It is filed as biochemical. Conditions: T1 relative to 20(S)CPT.

The target in test [3] is T2, topoisomerase I (Bos taurus, UniProt F1MN93).
T2 sequence (F1MN93 1-767): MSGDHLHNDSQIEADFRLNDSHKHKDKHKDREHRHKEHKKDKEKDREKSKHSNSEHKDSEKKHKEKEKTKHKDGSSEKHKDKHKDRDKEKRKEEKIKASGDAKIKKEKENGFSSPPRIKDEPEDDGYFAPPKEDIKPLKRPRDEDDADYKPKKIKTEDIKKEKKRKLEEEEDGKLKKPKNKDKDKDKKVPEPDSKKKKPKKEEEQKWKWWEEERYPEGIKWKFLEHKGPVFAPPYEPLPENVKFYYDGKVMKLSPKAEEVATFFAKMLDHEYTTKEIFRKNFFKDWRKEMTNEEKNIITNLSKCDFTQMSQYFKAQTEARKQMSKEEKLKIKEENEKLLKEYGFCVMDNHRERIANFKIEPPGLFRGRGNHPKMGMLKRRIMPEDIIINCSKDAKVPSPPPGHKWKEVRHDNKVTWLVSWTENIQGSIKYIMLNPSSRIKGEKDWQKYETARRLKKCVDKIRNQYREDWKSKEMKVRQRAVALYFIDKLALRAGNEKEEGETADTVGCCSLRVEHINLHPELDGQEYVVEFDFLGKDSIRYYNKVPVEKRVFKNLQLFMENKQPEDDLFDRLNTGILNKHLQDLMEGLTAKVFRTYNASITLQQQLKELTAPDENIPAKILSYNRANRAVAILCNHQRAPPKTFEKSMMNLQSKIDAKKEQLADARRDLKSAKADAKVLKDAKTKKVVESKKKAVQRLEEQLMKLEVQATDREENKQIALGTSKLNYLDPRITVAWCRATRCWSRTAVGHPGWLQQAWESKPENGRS
As to the kind of experiment: Topoisomerase I inhibition by the cleavable complex assay of Hsiang et al. The note with it: for T-1 Inhibition IC50: cleavable complex assay of Hsiang et al. It is filed as biochemical.

Where [4] appears, read: blood stream form T. brucei, 24 h at 37° C., acid phosphatase method.

Usually EC50 stands for the concentration giving half of the maximal effect. As for `CC[C@@]1(OC(=O)CN)C(=O)OCc2c1cc1n(c2=O)Cc2cc3ccccc3nc2-1` [20-Glycinate-20(S)-CPT], the EC50 in test [1] (setting [4]) came out at 5100 nM.

With `CCc1c2c(nc3cccc([N+](=O)[O-])c13)-c1cc3c(c(=O)n1C2)COC(=O)[C@]3(O)CC` [7-Ethyl-9-nitro-20(S)-CPT, 7-ethyl-9-nitro-20(S)-camptothecin], on topoisomerase I [2], the “Relative Potency T-1 Inhibition” value is reported as 4. Also, the concentration for a half-maximal effect (EC50) in test [1] (24 h) is 2670 nM.

Consider `CC[C@@]1(O)C(=O)OCc2c1cc1n(c2=O)Cc2cc3cc([N+](=O)[O-])ccc3nc2-1` [10-Nitro-20(S)-CPT], for which the EC50 in test [1] (24 h) was determined as 1750 nM.

For the compound `CC[C@@]1(O)C(=O)OCc2c1cc1n(c2=O)Cc2cc3cccc(N)c3nc2-1` [12-Amino-20(S)-CPT], the “T-1 Inhibition IC50” value at topoisomerase I [3] is “inactive”. Moreover, the EC50 in test [1] (24 h) was 22500 nM.

Turning to `CC[C@@]1(O)C(=O)OCc2c1cc1n(c2=O)Cc2cc3ccccc3nc2-1` [20(S)-CPT, 20(S)-camptothecin], at topoisomerase I [2], the “Relative Potency T-1 Inhibition” value stood at 1. For the same compound, in test [1] (24 h), the 50% effective concentration (EC50) came to 1550 nM.

For the compound `CCc1c2c(nc3ccc([N+](=O)[O-])cc13)-c1cc3c(c(=O)n1C2)COC(=O)[C@]3(O)CC` [7-Ethyl-10-nitro-20(S)-CPT, 7-ethyl-10-nitro-20(S)-camptothecin], on topoisomerase I [2], the “Relative Potency T-1 Inhibition” value amounted to 4. Further, the concentration giving a half-maximal response (EC50) in test [1] (24 h) was 600 nM.

As for `CCc1c2c(nc3ccccc13)-c1cc3c(c(=O)n1C2)COC(=O)[C@]3(O)CC` [7-Ethyl-20(S)-CPT, 7-ethyl-20(S)-camptothecin], on topoisomerase I [2], the “Relative Potency T-1 Inhibition” value was 3. Besides, the half-maximal effective concentration (EC50) in test [1] (24 h) came out at 770 nM.

For orientation: IC50 means the concentration that inhibits the measured activity by half. Read a high IC50 as a need for much substance. `CC[C@@]1(O)C(=O)OCc2c1cc1n(c2=O)Cc2cc3c(Cl)cccc3nc2-1` [9-Chloro-20(S)-CPT, 9-chloro-20(S)-camptothecin] returned an IC50 at topoisomerase I [3] of 90 nM. In addition, the concentration giving a half-maximal response (EC50) in test [1] (24 h) turned out to be 890 nM.

Take `CCc1c2c(nc3ccc(N)cc13)-c1cc3c(c(=O)n1C2)COC(=O)[C@]3(O)CC` [7-Ethyl-10-amino-20(S)-CPT, 7-ethyl-10-amino-20(S)-camptothecin]: the “Relative Potency T-1 Inhibition” value on topoisomerase I [2] came out at 5. Further, in test [1] (24 h), the EC50 stood at 620 nM.

As for `CC[C@@]1(O)C(=O)OCc2c1cc1n(c2=O)Cc2cc3c([N+](=O)[O-])cccc3nc2-1` [9-Nitro-20(S)-CPT], the concentration for a half-maximal effect (EC50) in test [1] (setting [4]) worked out at 1640 nM.

As for `CCC1(OC(=O)CN)C(=O)OCc2c1cc1n(c2=O)Cc2cc3cc4c(cc3nc2-1)OCO4` (racemic) [10,11-MD-20-Glycinate-20(RS)-CPT], the 50% effective concentration (EC50) in test [1] (setting [4]) was found to be 920 nM.

On to `CC[C@@]1(O)C(=O)OCc2c1cc1n(c2=O)Cc2cc3c(N)c4c(cc3nc2-1)OCO4` [9-Amino-10,11-MD-20(S)-CPT, 9-amino-10,11-methylenedioxy-20(S)-camptothecin], for which the midpoint of inhibition against topoisomerase I [3], the IC50, lay at 50 nM. For the same compound, in test [1] (24 h), the EC50 amounted to 180 nM.

In the case of `CCCc1c2c(nc3ccccc13)-c1cc3c(c(=O)n1C2)COC(=O)[C@]3(O)CC` [7-Propyl-20(S)-CPT, 7-propyl-20(S)-camptothecin], the “Relative Potency T-1 Inhibition” value on topoisomerase I [2] came to 2. In addition, the EC50 in test [1] (24 h) was found to be 770 nM.

As for `CC[C@@]1(O)C(=O)OCc2c1cc1n(c2=O)Cc2cc3c([N+](=O)[O-])c4c(cc3nc2-1)OCO4` [9-Nitro-10,11-methylenedioxy-20(S)-CPT], the “Relative Potency T-1 Inhibition” value on topoisomerase I [2] amounted to 3. The half-maximal effective concentration (EC50) in test [1] (24 h) was determined as 400 nM.

In turn, `CC[C@@]1(O)C(=O)OCc2c1cc1n(c2=O)Cc2cc3cc4c(cc3nc2-1)OCO4` [10,11-MD-20(S)-CPT, 10,11-methylenedioxy-20(S)-camptothecin] gave a concentration for half-maximal inhibition (IC50) against topoisomerase I [3] of 30 nM. Further, at topoisomerase I [2], the “Relative Potency T-1 Inhibition” value is 10. For the same compound, in test [1] (24 h), the EC50 worked out at 210 nM.

As for `CC[C@@]1(O)C(=O)OCc2c1cc1n(c2=O)Cc2cc3cc(N)ccc3nc2-1` [10-Amino-20(S)-CPT, 10-amino-20(S)-camptothecin], the “Relative Potency T-1 Inhibition” value on topoisomerase I [2] is reported as 2. Moreover, the EC50 in test [1] (24 h) was 1200 nM.

Regarding `CCc1c2c(nc3cc4c(c(N)c13)OCO4)-c1cc3c(c(=O)n1C2)COC(=O)[C@]3(O)CC` [7-ethyl-9-amino-10,11-methylenedioxy-20(S)-camptothecin], the “Relative Potency T-1 Inhibition” value on topoisomerase I [2] was 10. Further, in test [1] (24 h), the EC50 was 60 nM.

For `CC[C@@]1(O)C(=O)OCc2c1cc1n(c2=O)Cc2cc3ccc(N)cc3nc2-1` [11-Amino-20(S)-CPT], the “T-1 Inhibition IC50” value at topoisomerase I [3] was “inactive”. The EC50 in test [1] (24 h) was determined as 23100 nM.

`CC[C@@]1(O)C(=O)OCc2c1cc1n(c2=O)Cc2c-1nc1cc3c(cc1c2C)OCO3` [7-Methyl-10,11-methylenedioxy-20(S)-CPT, 7-methyl-10,11-methylenedioxy-20(S)-camptothecin]: the “Relative Potency T-1 Inhibition” value on topoisomerase I [2] is 5. In addition, in test [1] (24 h), the EC50 is 40 nM.

With `CCc1c2c(nc3cccc(N)c13)-c1cc3c(c(=O)n1C2)COC(=O)[C@]3(O)CC` [7-Ethyl-9-amino-20(S)-CPT, 7-ethyl-9-amino-20(S)-camptothecin], on topoisomerase I [2], the “Relative Potency T-1 Inhibition” value is recorded as 5. Moreover, the half-maximal effective concentration (EC50) in test [1] (24 h) stood at 910 nM.

For `CC[C@@]1(O)C(=O)OCc2c1cc1n(c2=O)Cc2cc3cc(C)ccc3nc2-1` [10-Methyl-20(S)-CPT], the EC50 in test [1] (24 h) was 3140 nM.

Consider `CC[C@@]1(O)C(=O)OCc2c1cc1n(c2=O)Cc2cc3cc(Cl)ccc3nc2-1` [10-Chloro-20(S)-CPT, 10-chloro-20(S)-camptothecin], for which the EC50 in test [1] (24 h) was 1770 nM.

As to `CCc1c2c(nc3cc4c(c([N+](=O)[O-])c13)OCO4)-c1cc3c(c(=O)n1C2)COC(=O)[C@]3(O)CC` [7-ethyl-9-nitro-10,11-methylenedioxy-20(S)-camptothecin], the “Relative Potency T-1 Inhibition” value on topoisomerase I [2] came out at 5. The 50% effective concentration (EC50) in test [1] (24 h) was found to be 210 nM.

As for `CC[C@@]1(O)C(=O)OCc2c1cc1n(c2=O)Cc2cc3c(N)cccc3nc2-1` [9-Amino-20(S)-CPT, 9-amino-20(S)-camptothecin], the “Relative Potency T-1 Inhibition” value at topoisomerase I [2] was 2. For the same compound, the EC50 in test [1] (setting [4]) worked out at 870 nM.

For the compound `CCc1c2c(nc3cc4c(cc13)OCO4)-c1cc3c(c(=O)n1C2)COC(=O)[C@]3(O)CC` [7-Ethyl-10,11-methylenedioxy-20(S)-CPT, 7-ethyl-10,11-methylenedioxy-20(S)-camptothecin], the “Relative Potency T-1 Inhibition” value at topoisomerase I [2] stood at 12. The EC50 in test [1] (24 h) stood at 60 nM.
